According to the supplement of paper PMC10307832:

Tests used:
Experiment in all cases: relative viability (nuclei count vs DMSO), 5 days (fraction); higher = more cells survive
Veliparib + Luminespib = compound: C[C@]1(c2nc3c(C(N)=O)cccc3[nH]2)CCCN1 [Veliparib] + CCNC(=O)c1noc(-c2cc(C(C)C)c(O)cc2O)c1-c1ccc(CN2CCOCC2)cc1 [Luminespib] (partner 0.01 µM)
In short: (§1)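 Dosing by pin tool came one day after lung cancer cell lines were seeded in 1536-well plates, using either one drug or a fixed anchor-drug dose plus five library-drug doses (not always all listed) in √10 steps. After 5 days, nuclei were counted on 4× images. Relative viability is treated-well nuclei count divided by vehicle-well nuclei count, and values are medians of duplicate plates.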

[1] = compound: COC1=CC=C(C=C1)CN2C=CC3=C2C=C(C=C3)C(=O)NO + CS(=O)(=O)CCNCc1ccc(-c2ccc3ncnc(Nc4ccc(OCc5cccc(F)c5)c(Cl)c4)c3c2)o1 [Lapatinib] (partner 2 µM)
In short: as §1

[2] = compound: COC1=CC=C(C=C1)CN2C=CC3=C2C=C(C=C3)C(=O)NO + CC1(C)CCC(c2ccc(Cl)cc2)=C(CN2CCN(c3ccc(C(=O)NS(=O)(=O)c4ccc(N[C@H](CCN5CCOCC5)CSc5ccccc5)c(S(=O)(=O)C(F)(F)F)c4)cc3)CC2)C1 [Navitoclax] (partner 0.5 µM)
In short: as §1

Veliparib + Dasatinib = compound: C[C@]1(c2nc3c(C(N)=O)cccc3[nH]2)CCCN1 [Veliparib] + Cc1nc(Nc2ncc(C(=O)Nc3c(C)cccc3Cl)s2)cc(N2CCN(CCO)CC2)n1 [Dasatinib] (partner 0.075 µM)
In short: as §1

| Cell Line | relative viability (Veliparib + Luminespib; first compound 0.02 µM) | relative viability (Veliparib + Luminespib; first compound 0.06325 µM) | relative viability (Veliparib + Luminespib; first compound 0.2 µM) | relative viability (Veliparib + Luminespib; first compound 0.6325 µM) | relative viability (Veliparib + Luminespib; first compound 2 µM) | relative viability ([1]; first compound 0.08 µM) | relative viability ([1]; first compound 0.253 µM) | relative viability ([1]; first compound 0.8 µM) | relative viability ([1]; first compound 2.53 µM) | relative viability ([1]; first compound 8 µM) | relative viability ([2]; first compound 0.08 µM) | relative viability ([2]; first compound 0.253 µM) | relative viability ([2]; first compound 0.8 µM) | relative viability ([2]; first compound 2.53 µM) | relative viability ([2]; first compound 8 µM) | relative viability (Veliparib + Dasatinib; first compound 0.02 µM) | relative viability (Veliparib + Dasatinib; first compound 0.06325 µM) | relative viability (Veliparib + Dasatinib; first compound 0.2 µM) | relative viability (Veliparib + Dasatinib; first compound 0.6325 µM) | relative viability (Veliparib + Dasatinib; first compound 2 µM) |
| --- | --- | --- | --- | --- | --- | --- | --- | --- | --- | --- | --- | --- | --- | --- | --- | --- | --- | --- | --- | --- |
| NCI-H727 | 0.442 | 0.33 | 0.364 | 0.265 | 0.353 | 0.775 | 0.927 | 0.868 | 0.942 | 0.915 | 0.342 | 0.404 | 0.404 | 0.543 | 0.341 | 0.267 | 0.365 | 0.305 | 0.47 | 0.331 |
| NCI-H1755 | 0.551 | 0.553 | 0.41 | 0.357 | 0.36 | 0.715 | 1.07 | 1 | 1.01 | 1.02 | 0.949 | 1.02 | 1 | 1.03 | 1.02 | 0.392 | 0.37 | 0.401 | 0.375 | 0.413 |
| NCI-H1944 | 0.698 | 0.618 | 0.633 | 0.613 | 0.657 | – | 0.834 | 0.86 | 0.817 | 0.701 | – | 0.998 | 1.02 | 1.08 | 1.08 | 0.204 | 0.196 | 0.21 | 0.195 | 0.219 |
| NCI-H322M | – | 0.814 | 0.915 | 0.855 | 0.848 | – | 0.628 | 0.644 | 0.293 | 0.499 | – | 1.1 | 1.13 | 1.18 | 1.24 | – | 0.231 | 0.246 | 0.27 | 0.253 |
| NCI-H647 | 0.249 | 0.142 | 0.195 | 0.12 | 0.359 | 0.626 | 1.07 | 1.04 | 1.1 | 0.97 | – | 1.04 | 1 | 0.959 | 1.21 | 0.164 | 0.187 | 0.243 | 0.165 | 0.192 |
| LXF-289 | 0.652 | 0.712 | 0.759 | 0.545 | 0.601 | 0.301 | 0.921 | 0.878 | 0.926 | 0.883 | 0.446 | 0.947 | 0.954 | 0.935 | 1.03 | 0.251 | 0.2 | 0.251 | 0.204 | 0.224 |
| HCC-827 | 0.468 | 0.692 | 0.654 | 0.493 | 0.588 | 0.189 | 0.212 | 0.168 | 0.181 | 0.178 | 0.95 | 0.964 | 0.988 | 1.08 | 0.986 | 0.362 | 0.302 | 0.266 | 0.205 | 0.364 |
| NCI-H1734 | 0.197 | 0.209 | 0.211 | 0.232 | 0.233 | – | 1.14 | 1.07 | 1.04 | 0.916 | – | 0.899 | 0.947 | 0.805 | 0.882 | 0.523 | 0.473 | 0.569 | 0.443 | 0.505 |
